Measurements taken from patent US20100234385A1 (Kaneka Corporation, priority 2006, published 2010).

Experiments:
[1] = system: melanocytes; assay: Inhibitory effect on melanocytes in vitro; type: cell-based
[2] = Sawabe et al. 2004, cited from earlier work
[3] = BH4 concentration in the brain after oral administration for 3 consecutive days to hph-1 mice; conditions: 5 mg/kg oral, 3 consecutive days at 24-hour intervals, 2.5 hours after final dosing, versus non-dose group
Description: The mice were biopsied 2.5 hours after the final dosing, their brains were excised and BH4 levels were quantified in the same manner as Example 1.

| Molecule | effects on melanocytes in vitro [1] | time of sharp peak of BH4 after administration [2] | time until BH4 concentration returns to the original level ([2]; after administration of BH4) | intracerebral BH4 concentrations [3] |
| --- | --- | --- | --- | --- |
| 6-(L-erythro-1,2-dihydroxypropyl)-pterin or 7-(L-erythro-1,2-dihydroxypropyl)-pterin [biopterin] | inhibitory effects | – | – | – |
| C[C@H](O)[C@H](O)[C@H]1CNc2nc(N)[nH]c(=O)c2N1 [BH4, L-erythro-5,6,7,8-tetrahydrobiopterin] | – | 0.5 to 1 h | about 4 hours | changes are not observed |
